Measured values: ChEMBL document CHEMBL1152238, “Perylene side chains modulate G-quadruplex conformation in biologically relevant DNA sequences” (Bioorg Med Chem, 2008)
Activity calls are given as the source filed them. The calls are words filed in the database; no cut-off is given here.

Biological target: not listed separately
Test: Binding affinity to 2GGG sequence of human telomeric DNA assessed as intramolecular folding leading to G-quadruplex formation at 25 degC after 30 mins by electrophoretic mobility shift assay

Compound	EC50 [µM]
O=C1c2ccc3c4ccc5c6c(ccc(c7ccc(c2c37)C(=O)N1CCN1CCCCC1)c64)C(=O)N(CCN1CCCCC1)C5=O	90
C[N+](C)(C)CCN1C(=O)c2ccc3c4ccc5c6c(ccc(c7ccc(c2c37)C1=O)c64)C(=O)N(CC[N+](C)(C)C)C5=O	12

Biological target: not listed separately
Test: Binding affinity to 1GGG sequence of human telomeric DNA assessed as intramolecular folding leading to G-quadruplex formation at 25 degC after 30 mins by electrophoretic mobility shift assay

Compound	EC50 [µM]
O=C1c2ccc3c4ccc5c6c(ccc(c7ccc(c2c37)C(=O)N1CCN1CCCCC1)c64)C(=O)N(CCN1CCCCC1)C5=O	> 100
C[N+](C)(C)CCN1C(=O)c2ccc3c4ccc5c6c(ccc(c7ccc(c2c37)C1=O)c64)C(=O)N(CC[N+](C)(C)C)C5=O	10.8

Species on record: Homo sapiens
Test: Binding affinity to 4GGG sequence of human telomeric DNA assessed as intramolecular folding leading to G-quadruplex formation at 25 degC after 30 mins by electrophoretic mobility shift assay

Compound	Activity
O=C1c2ccc3c4ccc5c6c(ccc(c7ccc(c2c37)C(=O)N1CCN1CCCCC1)c64)C(=O)N(CCN1CCCCC1)C5=O	Active

Tested on: not listed separately
Test: Binding affinity to pu27 sequence of c-myc DNA assessed as intramolecular folding leading to G-quadruplex formation at 25 degC after 30 mins by electrophoretic mobility shift assay

Compound	Activity
O=C1c2ccc3c4ccc5c6c(ccc(c7ccc(c2c37)C(=O)N1CCN1CCCCC1)c64)C(=O)N(CCN1CCCCC1)C5=O	Active

Species on record: Homo sapiens
Test: Binding affinity to 2GGG sequence of human telomeric DNA assessed as G-quadruplex stabilization at 25 degC after 30 mins by electrophoretic mobility shift assay in presence of Li+ ions

Compound	Activity
O=C1c2ccc3c4ccc5c6c(ccc(c7ccc(c2c37)C(=O)N1CCN1CCCCC1)c64)C(=O)N(CCN1CCCCC1)C5=O	Active
C[N+](C)(C)CCN1C(=O)c2ccc3c4ccc5c6c(ccc(c7ccc(c2c37)C1=O)c64)C(=O)N(CC[N+](C)(C)C)C5=O	Active

Species on record: Homo sapiens
Test: Binding affinity to 1GGG sequence of human telomeric DNA assessed as G-quadruplex stabilization at 25 degC after 30 mins by electrophoretic mobility shift assay in presence of Li+ ions

Compound	Activity
O=C1c2ccc3c4ccc5c6c(ccc(c7ccc(c2c37)C(=O)N1CCN1CCCCC1)c64)C(=O)N(CCN1CCCCC1)C5=O	Active
C[N+](C)(C)CCN1C(=O)c2ccc3c4ccc5c6c(ccc(c7ccc(c2c37)C1=O)c64)C(=O)N(CC[N+](C)(C)C)C5=O	Active

Species on record: Homo sapiens
Test: Binding affinity to 4GGG sequence of human telomeric DNA assessed as G-quadruplex stabilization at 25 degC after 30 mins by electrophoretic mobility shift assay in presence of Li+ ions

Compound	Activity
O=C1c2ccc3c4ccc5c6c(ccc(c7ccc(c2c37)C(=O)N1CCN1CCCCC1)c64)C(=O)N(CCN1CCCCC1)C5=O	Active
C[N+](C)(C)CCN1C(=O)c2ccc3c4ccc5c6c(ccc(c7ccc(c2c37)C1=O)c64)C(=O)N(CC[N+](C)(C)C)C5=O	Active

Tested on: not listed separately
Test: Binding affinity to pu27 sequence of c-myc DNA assessed as G-quadruplex stabilization at 25 degC after 30 mins at 25 degC by electrophoretic mobility shift assay in presence of Li+ ions

Compound	Activity
O=C1c2ccc3c4ccc5c6c(ccc(c7ccc(c2c37)C(=O)N1CCN1CCCCC1)c64)C(=O)N(CCN1CCCCC1)C5=O	Active
C[N+](C)(C)CCN1C(=O)c2ccc3c4ccc5c6c(ccc(c7ccc(c2c37)C1=O)c64)C(=O)N(CC[N+](C)(C)C)C5=O	Active

Species on record: Homo sapiens
Test: Binding affinity to 2GGG sequence of human telomeric DNA assessed as stabilization of dimeric form of G-quadruplex DNA at 95 degC for 5 mins by electrophoretic mobility shift assay

Compound	Activity
O=C1c2ccc3c4ccc5c6c(ccc(c7ccc(c2c37)C(=O)N1CCN1CCCCC1)c64)C(=O)N(CCN1CCCCC1)C5=O	Active

Species on record: Homo sapiens
Test: Binding affinity to 2GGG sequence of human telomeric DNA assessed as G-quadruplex formation at 25 degC upto 15 uM after 24 hr by electrophoretic mobility shift assay

Compound	Activity
O=C1c2ccc3c4ccc5c6c(ccc(c7ccc(c2c37)C(=O)N1CCN1CCCCC1)c64)C(=O)N(CCN1CCCCC1)C5=O	Active

Species on record: Homo sapiens
Test: Binding affinity to 2GGG sequence of human telomeric DNA assessed as G-quadruplex formation at 25 degC upto 15 uM after 30 mins by electrophoretic mobility shift assay

Compound	Activity
O=C1c2ccc3c4ccc5c6c(ccc(c7ccc(c2c37)C(=O)N1CCN1CCCCC1)c64)C(=O)N(CCN1CCCCC1)C5=O	Active

Species on record: Homo sapiens
Test: Binding affinity to 2GGG sequence of human telomeric DNA assessed as G-quadruplex formation at 90 degC upto 15 uM after 10 mins by electrophoretic mobility shift assay

Compound	Activity
O=C1c2ccc3c4ccc5c6c(ccc(c7ccc(c2c37)C(=O)N1CCN1CCCCC1)c64)C(=O)N(CCN1CCCCC1)C5=O	Active

Species on record: Homo sapiens
Test: Binding affinity to double stranded 4GGG sequence of human telomeric DNA assessed as G-quadruplex formation at 0.1 to 10 uM at 37 degC after 24 hrs by electrophoretic mobility shift assay

Compound	Activity
O=C1c2ccc3c4ccc5c6c(ccc(c7ccc(c2c37)C(=O)N1CCN1CCCCC1)c64)C(=O)N(CCN1CCCCC1)C5=O	inactive
C[N+](C)(C)CCN1C(=O)c2ccc3c4ccc5c6c(ccc(c7ccc(c2c37)C1=O)c64)C(=O)N(CC[N+](C)(C)C)C5=O	inactive

Species on record: Homo sapiens
Test: Binding affinity to 4GGGtail sequence of human telomeric DNA assessed as G-quadruplex formation at 0.1 to 10 uM at 37 degC after 24 hrs by electrophoretic mobility shift assay

Compound	Activity
O=C1c2ccc3c4ccc5c6c(ccc(c7ccc(c2c37)C(=O)N1CCN1CCCCC1)c64)C(=O)N(CCN1CCCCC1)C5=O	Active

Species on record: Homo sapiens
Test: Binding affinity to 1GGG sequence of human telomeric DNA assessed as G-quadruplex formation at 14 uM at 25 degC after 30 mins by circular dichroism spectroscopy

Activity	Compound
inactive	C[N+](C)(C)CCN1C(=O)c2ccc3c4ccc5c6c(ccc(c7ccc(c2c37)C1=O)c64)C(=O)N(CC[N+](C)(C)C)C5=O

Species on record: Homo sapiens
Test: Binding affinity to 2GGG sequence of human telomeric DNA assessed as G-quadruplex formation at 14 uM at 25 degC after 30 mins by circular dichroism spectroscopy

Activity	Compound
inactive	C[N+](C)(C)CCN1C(=O)c2ccc3c4ccc5c6c(ccc(c7ccc(c2c37)C1=O)c64)C(=O)N(CC[N+](C)(C)C)C5=O

Species on record: Homo sapiens
Test: Binding affinity to 4GGG sequence of human telomeric DNA assessed as G-quadruplex formation at 14 uM at 25 degC after 30 mins by circular dichroism spectroscopy in presence of K+ ions

Compound	Activity
O=C1c2ccc3c4ccc5c6c(ccc(c7ccc(c2c37)C(=O)N1CCN1CCCCC1)c64)C(=O)N(CCN1CCCCC1)C5=O	Active
C[N+](C)(C)CCN1C(=O)c2ccc3c4ccc5c6c(ccc(c7ccc(c2c37)C1=O)c64)C(=O)N(CC[N+](C)(C)C)C5=O	Active

Tested on: not listed separately
Test: Binding affinity to double stranded pu27 sequence of c-myc DNA assessed as melting temperature at 14 uM at 25 degC after 30 mins by circular dichroism spectroscopy in presence of K+ ions

Tm [°C]	Compound
83	C[N+](C)(C)CCN1C(=O)c2ccc3c4ccc5c6c(ccc(c7ccc(c2c37)C1=O)c64)C(=O)N(CC[N+](C)(C)C)C5=O

Species on record: Homo sapiens
Test: Binding affinity to 4GGG sequence of human telomeric DNA assessed as melting temperature at 14 uM at 25 degC after 30 mins by circular dichroism spectroscopy in presence of K+ ions

Tm [°C]	Compound
64	C[N+](C)(C)CCN1C(=O)c2ccc3c4ccc5c6c(ccc(c7ccc(c2c37)C1=O)c64)C(=O)N(CC[N+](C)(C)C)C5=O

Species on record: Homo sapiens
Test: Binding affinity to 4GGG sequence of human telomeric DNA assessed as G-quadruplex formation at 14 uM at 25 degC after 30 mins during thermal cycling by circular dichroism spectroscopy

Compound	Activity
O=C1c2ccc3c4ccc5c6c(ccc(c7ccc(c2c37)C(=O)N1CCN1CCCCC1)c64)C(=O)N(CCN1CCCCC1)C5=O	inactive
C[N+](C)(C)CCN1C(=O)c2ccc3c4ccc5c6c(ccc(c7ccc(c2c37)C1=O)c64)C(=O)N(CC[N+](C)(C)C)C5=O	Active

Tested on: not listed separately
Test: Binding affinity to double stranded pu27 sequence of c-myc DNA assessed as G-quadruplex formation at 14 uM at 25 degC after 30 mins during thermal cycling by circular dichroism spectroscopy

Compound	Activity
O=C1c2ccc3c4ccc5c6c(ccc(c7ccc(c2c37)C(=O)N1CCN1CCCCC1)c64)C(=O)N(CCN1CCCCC1)C5=O	Active

Species on record: Homo sapiens
Test: Binding affinity to unfolded 4GGG sequence of human telomeric DNA assessed as G-quadruplex formation at 25 degC by circular dichroism spectroscopy in presence of Li+ ions

Compound	Activity
O=C1c2ccc3c4ccc5c6c(ccc(c7ccc(c2c37)C(=O)N1CCN1CCCCC1)c64)C(=O)N(CCN1CCCCC1)C5=O	Active

Tested on: Nucleic Acid
Test: Binding affinity to negatively supercoiled Escherichia coli pBR322 DNA assessed as DNA intercalation at 10 to 20 uM at pH 8 after 30 mins by DNA unwinding assay
Assay type: nucleic-acid assay

Activity	Compound
Active	C[N+](C)(C)CCN1C(=O)c2ccc3c4ccc5c6c(ccc(c7ccc(c2c37)C1=O)c64)C(=O)N(CC[N+](C)(C)C)C5=O

Species on record: Homo sapiens
Test: Binding affinity to 42GGG sequence of human telomeric DNA assessed as G-quadruplex formation at 25 degC upto 20 uM after 30 mins by electrophoretic mobility shift assay

Compound	Activity
O=C1c2ccc3c4ccc5c6c(ccc(c7ccc(c2c37)C(=O)N1CCN1CCCCC1)c64)C(=O)N(CCN1CCCCC1)C5=O	inactive

Tested on: Escherichia coli
Test: Binding affinity to negatively supercoiled Escherichia coli pBR322 DNA assessed as self-aggregation at 10 to 20 uM at 37 degC after 30 mins by DNA unwinding assay

Compound	Activity
O=C1c2ccc3c4ccc5c6c(ccc(c7ccc(c2c37)C(=O)N1CCN1CCCCC1)c64)C(=O)N(CCN1CCCCC1)C5=O	inactive

Tested on: Nucleic Acid
Test: Binding affinity to negatively supercoiled Escherichia coli pBR322 DNA assessed as DNA intercalation at 20 to 50 uM at pH 6 after 30 mins by DNA unwinding assay
Assay type: nucleic-acid assay

Compound	Activity
O=C1c2ccc3c4ccc5c6c(ccc(c7ccc(c2c37)C(=O)N1CCN1CCCCC1)c64)C(=O)N(CCN1CCCCC1)C5=O	Active
C[N+](C)(C)CCN1C(=O)c2ccc3c4ccc5c6c(ccc(c7ccc(c2c37)C1=O)c64)C(=O)N(CC[N+](C)(C)C)C5=O	Active

Species on record: Homo sapiens
Test: Binding affinity to 42GGG sequence of human telomeric DNA assessed as G-quadruplex formation at 90 degC after 10 mins by electrophoretic mobility shift assay

Compound	Activity
O=C1c2ccc3c4ccc5c6c(ccc(c7ccc(c2c37)C(=O)N1CCN1CCCCC1)c64)C(=O)N(CCN1CCCCC1)C5=O	inactive

Tested on: not listed separately
Test: Binding affinity to pu27 sequence of c-myc DNA assessed as G-quadruplex formation at 90 degC […] after 10 mins by electrophoretic mobility shift assay

Compound	Activity
O=C1c2ccc3c4ccc5c6c(ccc(c7ccc(c2c37)C(=O)N1CCN1CCCCC1)c64)C(=O)N(CCN1CCCCC1)C5=O	inactive
C[N+](C)(C)CCN1C(=O)c2ccc3c4ccc5c6c(ccc(c7ccc(c2c37)C1=O)c64)C(=O)N(CC[N+](C)(C)C)C5=O	inactive
